Our source for the IC50 values is US9682995B2, “Amino-substituted isothiazoles” (BAYER PHARMA AKTIENGESELLSCHAFT, priority 2013, dated 2017).

Common to all, as to format: cell-based
One experiment has as its system B16F10. Put plainly: Proliferation assay (crystal violet), B16F10. The conditions noted are these: Mus musculus, B16-F10, 96 h; B16F10, 4 days; read-out: Inhibition of proliferation IC50 B16F10. The method, then: (§1) Cultivated tumor cells (cells were ordered from ATCC, except HeLa-MaTu and HeLa-MaTu-ADR, which were ordered from EPO-GmbH, Berlin) were plated at a density of 1000 to 5000 cells/well, depending on the growth rate of the respective cell line, in a 96-well multititer plate in 200 μL of their respective growth medium supplemented 10% fetal calf serum. After 24 hours, the cells of one plate (zero-point plate) were stained with crystal violet (see below), while the medium of the other plates was replaced by fresh culture medium (200 μl), to which the test substances were added in various concentrations (0 μM, as well as in the range of 0.001-10 μM; the final concentration of the solvent dimethyl sulfoxide was 0.5%). The cells were incubated for 4 days in the presence of test substances. Cell proliferation was determined by staining the cells with crystal violet: the cells were fixed by adding 20 μl/measuring point of an 11% glutaric aldehyde solution for 15 minutes at room temperature. After three washing cycles of the fixed cells with water, the plates were dried at room temperature. The cells were stained by adding 100 μl/measuring point of a 0.1% crystal violet solution (pH 3.0). After three washing cycles of the stained cells with water, the plates were dried at room temperature. The dye was dissolved by adding 100 μl/measuring point of a 10% acetic acid solution. Absorption was determined by photometry at a wavelength of 595 nm. The change of cell number, in percent, was calculated by normalization of the measured values to the absorption values of the zero-point plate (=0%) and the absorption of the untreated (0 μm) cells (=100%). The IC50 values were determined by means of a 4 parameter fit.

For another experiment, the system named is NCI-H460. Put plainly: Proliferation assay (crystal violet), NCI-H460. As to conditions: Homo sapiens, 96 h; NCI-H460, 4 days; read-out: Inhibition of proliferation IC50 NCI-H460. The protocol:
as §1

In a further experiment the test system is Caco2. In words: Proliferation assay (crystal violet), Caco2. The conditions noted are these: Homo sapiens, Caco-2, 96 h; Caco2, 4 days; read-out: Inhibition of proliferation IC50 Caco2. The protocol: as §1
The test system of the next experiment is HeLa-MaTu-ADR. Put plainly: Proliferation assay (crystal violet), HeLa-MaTu-ADR. The conditions noted are these: 96 h, 4 days, read-out: Inhibition of proliferation IC50 HeLa-MaTu-ADR. The method, then: as §1
The subject of a further experiment is DU145. Put plainly: Proliferation assay (crystal violet), DU145. The conditions noted are these: Homo sapiens, DU-145, 96 h; DU145, 4 days; read-out: Inhibition of proliferation IC50 DU145. The protocol: as §1

With `CCc1ccccc1NC(=O)c1c(C)nsc1Nc1cc(C#N)ccn1` [Example 4, 5-[(4-Cyanopyridin-2-yl)amino]-N-(2-ethylphenyl)-3-methyl-1,2-thiazole-4-carboxamide], the IC50 with B16F10 came to 2700 nM; in the experiment on NCI-H460, 2000 nM; in the experiment on Caco2, 2400 nM; with HeLa-MaTu-ADR, 1800 nM; in the experiment with DU145, 6900 nM.
The matching figures for `Cc1nsc(Nc2cnc3cc(C(F)(F)F)ccc3n2)c1C(=O)Nc1ccc(F)c(F)c1` [Example 60, N-(3,4-Difluorophenyl)-3-methyl-5-{[6-(trifluoromethyl)quinoxalin-2-yl]amino}-1,2-thiazole-4-carboxamide]: 250 nM, 230 nM, 220 nM, 240 nM and 430 nM.
`Cc1nsc(Nc2ccc(C#N)cn2)c1C(=O)Nc1ccc(Cl)c(Cl)c1` [Example 62, 5-[(5-Cyanopyridin-2-yl)amino]-N-(3,4-dichlorophenyl)-3-methyl-1,2-thiazole-4-carboxamide]: the IC50 with B16F10 turned out to be 140 nM; in the experiment with NCI-H460, 140 nM; in the experiment with Caco2, 190 nM; in the experiment on DU145, 290 nM.
As for `Cc1nsc(Nc2cncc(-n3cccn3)n2)c1C(=O)Nc1ccc(F)c(F)c1` [Example 64, N-(3,4-Difluorophenyl)-3-methyl-5-{[6-(1H-pyrazol-1-yl)pyrazin-2-yl]amino}-1,2-thiazole-4-carboxamide], the IC50 came out at 470 nM with B16F10; 260 nM in the experiment with NCI-H460; 720 nM in the experiment with Caco2; 270 nM in the experiment with HeLa-MaTu-ADR; 470 nM in the experiment with DU145.
For `Cc1nsc(Nc2cncc(-n3cccn3)n2)c1C(=O)Nc1ccc(Cl)c(F)c1` [Example 67, N-(4-Chloro-3-fluorophenyl)-3-methyl-5-{[6-(1H-pyrazol-1-yl)pyrazin-2-yl]amino}-1,2-thiazole-4-carboxamide], the IC50 amounted to 160 nM in the experiment with B16F10; 210 nM with NCI-H460; 210 nM with Caco2; 180 nM in the experiment with HeLa-MaTu-ADR; 320 nM in the experiment on DU145.
Regarding `Cc1nsc(Nc2cnc3cc(C(F)(F)F)ccc3n2)c1C(=O)Nc1ccc(Cl)c(F)c1` [Example 68, N-(4-Chloro-3-fluorophenyl)-3-methyl-5-{[6-(trifluoromethyl)quinoxalin-2-yl]amino}-1,2-thiazole-4-carboxamide], the IC50 was determined as 330 nM in the experiment on B16F10; 350 nM in the experiment on NCI-H460; 240 nM with Caco2; 320 nM in the experiment on HeLa-MaTu-ADR; 570 nM in the experiment on DU145.
The matching figures for `Cc1nsc(Nc2cncc(Cl)n2)c1C(=O)Nc1ccc(F)c(F)c1` [Example 71, 5-[(6-Chloropyrazin-2-yl)amino]-N-(3,4-difluorophenyl)-3-methyl-1,2-thiazole-4-carboxamide]: 220 nM, 180 nM, 240 nM, 230 nM and 430 nM.
For `CCNC(=O)c1cncc(Nc2snc(C)c2C(=O)Nc2ccc(F)c(F)c2)n1` [Example 73, 6-({4-[(3,4-Difluorophenyl)carbamoyl]-3-methyl-1,2-thiazol-5-yl}amino)-N-ethylpyrazine-2-carboxamide] the same measures were 390 nM, 620 nM, 320 nM, 100 nM and 510 nM.
For `Cc1nsc(Nc2cnc(Cl)cn2)c1C(=O)Nc1ccc(F)c(F)c1` [Example 74, 5-[(5-Chloropyrazin-2-yl)amino]-N-(3,4-difluorophenyl)-3-methyl-1,2-thiazole-4-carboxamide] the same measures were 170 nM, 120 nM, 160 nM, 130 nM and 190 nM.
As to `CNC(=O)c1cnc(Nc2snc(C)c2C(=O)Nc2ccc(F)c(F)c2)cn1` [Example 75, 5-({4-[(3,4-Difluorophenyl)carbamoyl]-3-methyl-1,2-thiazol-5-yl}amino)-N-methylpyrazine-2-carboxamide], the IC50 with B16F10 was 3000 nM; with NCI-H460, 2900 nM; with Caco2 it was 1300 nM; in the experiment with HeLa-MaTu-ADR, 530 nM; with DU145, 2900 nM.
Regarding `Cc1nsc(Nc2cnc(Br)cn2)c1C(=O)Nc1ccc(F)c(F)c1` [Example 77, 5-[(5-Bromopyrazin-2-yl)amino]-N-(3,4-difluorophenyl)-3-methyl-1,2-thiazole-4-carboxamide], the IC50 in the experiment with B16F10 was 220 nM; with NCI-H460, 180 nM; with Caco2, 180 nM; in the experiment on HeLa-MaTu-ADR, 94 nM; in the experiment with DU145, 280 nM.
On to `CCNc1cncc(Nc2snc(C)c2C(=O)Nc2ccc(F)c(F)c2)n1` [Example 78, N-(3,4-Difluorophenyl)-5-{[6-(ethylamino)pyrazin-2-yl]amino}-3-methyl-1,2-thiazole-4-carboxamide], for which the IC50 with B16F10 came out at 2000 nM; in the experiment on NCI-H460, 3000 nM; in the experiment on Caco2, 1500 nM; in the experiment on HeLa-MaTu-ADR it was 1100 nM; in the experiment on DU145 it was 3000 nM.
Turning to `CCc1cnc(Nc2snc(C)c2C(=O)Nc2ccc(F)c(F)c2)cn1` [Example 79, N-(3,4-Difluorophenyl)-5-[(5-ethylpyrazin-2-yl)amino]-3-methyl-1,2-thiazole-4-carboxamide], the IC50 in the experiment on B16F10 stood at 510 nM; in the experiment on NCI-H460, 340 nM; in the experiment on Caco2 it was 350 nM; in the experiment with HeLa-MaTu-ADR it was 350 nM; in the experiment on DU145 it was 650 nM.
Consider `Cc1nsc(Nc2cnc(C(F)(F)F)cn2)c1C(=O)Nc1ccc(F)c(F)c1` [Example 81, N-(3,4-Difluorophenyl)-3-methyl-5-{[5-(trifluoromethyl)pyrazin-2-yl]amino}-1,2-thiazole-4-carboxamide], for which the IC50 in the experiment with B16F10 came to 200 nM; with NCI-H460 it was 240 nM; in the experiment with Caco2, 210 nM; in the experiment on HeLa-MaTu-ADR, 230 nM; in the experiment on DU145 it was 680 nM.
For `Cc1nsc(Nc2cncc(C(F)(F)F)n2)c1C(=O)Nc1ccc(F)c(F)c1` [Example 82, N-(3,4-Difluorophenyl)-3-methyl-5-{[6-(trifluoromethyl)pyrazin-2-yl]amino}-1,2-thiazole-4-carboxamide] the same measures were 140 nM, 56 nM, 170 nM, 130 nM and 270 nM.
The matching figures for `Cc1nsc(Nc2ccc(C(F)(F)F)nn2)c1C(=O)Nc1ccc(F)c(F)c1` [Example 83, N-(3,4-Difluorophenyl)-3-methyl-5-{[6-(trifluoromethyl)pyridazin-3-yl]amino}-1,2-thiazole-4-carboxamide]: 250 nM, 260 nM, 350 nM, 370 nM and 740 nM.
The matching figures for `COc1ccc(NC(=O)c2c(C)nsc2Nc2cncc(C(F)(F)F)n2)cn1` [Example 84, N-(6-methoxypyridin-3-yl)-3-methyl-5-{[6-(trifluoromethyl)pyrazin-2-yl]amino}-1,2-thiazole-4-carboxamide]: 290 nM, 180 nM, 240 nM, 330 nM and 840 nM.
Take `COc1ccc(NC(=O)c2c(C)nsc2Nc2cnc(C(F)(F)F)cn2)cn1` [Example 85, N-(6-methoxypyridin-3-yl)-3-methyl-5-{[5-(trifluoromethyl)pyrazin-2-yl]amino}-1,2-thiazole-4-carboxamide]: the IC50 in the experiment on B16F10 came to 500 nM; with NCI-H460 it was 420 nM; with Caco2, 370 nM; in the experiment with HeLa-MaTu-ADR, 360 nM; in the experiment with DU145 it was 700 nM.
For `CCc1ccccc1NC(=O)c1c(C)nsc1Nc1cnc2cc(Cl)ccc2n1` [Example 86, 5-[(6-Chloroquinoxalin-2-yl)amino]-N-(2-ethylphenyl)-3-methyl-1,2-thiazole-4-carboxamide] the same measures were 320 nM, 170 nM, 310 nM, 260 nM and 510 nM.
